This test has as its target T1, HDAC6 enzyme (Homo sapiens, UniProt Q9UBN7).
T1 construct: prepared by transducing full length HDAC6 gene into Sf-9 insect cells; GST; purchased SignalChem; host or cells: Sf-9 insect cells
T1 sequence (Q9UBN7 1-1215): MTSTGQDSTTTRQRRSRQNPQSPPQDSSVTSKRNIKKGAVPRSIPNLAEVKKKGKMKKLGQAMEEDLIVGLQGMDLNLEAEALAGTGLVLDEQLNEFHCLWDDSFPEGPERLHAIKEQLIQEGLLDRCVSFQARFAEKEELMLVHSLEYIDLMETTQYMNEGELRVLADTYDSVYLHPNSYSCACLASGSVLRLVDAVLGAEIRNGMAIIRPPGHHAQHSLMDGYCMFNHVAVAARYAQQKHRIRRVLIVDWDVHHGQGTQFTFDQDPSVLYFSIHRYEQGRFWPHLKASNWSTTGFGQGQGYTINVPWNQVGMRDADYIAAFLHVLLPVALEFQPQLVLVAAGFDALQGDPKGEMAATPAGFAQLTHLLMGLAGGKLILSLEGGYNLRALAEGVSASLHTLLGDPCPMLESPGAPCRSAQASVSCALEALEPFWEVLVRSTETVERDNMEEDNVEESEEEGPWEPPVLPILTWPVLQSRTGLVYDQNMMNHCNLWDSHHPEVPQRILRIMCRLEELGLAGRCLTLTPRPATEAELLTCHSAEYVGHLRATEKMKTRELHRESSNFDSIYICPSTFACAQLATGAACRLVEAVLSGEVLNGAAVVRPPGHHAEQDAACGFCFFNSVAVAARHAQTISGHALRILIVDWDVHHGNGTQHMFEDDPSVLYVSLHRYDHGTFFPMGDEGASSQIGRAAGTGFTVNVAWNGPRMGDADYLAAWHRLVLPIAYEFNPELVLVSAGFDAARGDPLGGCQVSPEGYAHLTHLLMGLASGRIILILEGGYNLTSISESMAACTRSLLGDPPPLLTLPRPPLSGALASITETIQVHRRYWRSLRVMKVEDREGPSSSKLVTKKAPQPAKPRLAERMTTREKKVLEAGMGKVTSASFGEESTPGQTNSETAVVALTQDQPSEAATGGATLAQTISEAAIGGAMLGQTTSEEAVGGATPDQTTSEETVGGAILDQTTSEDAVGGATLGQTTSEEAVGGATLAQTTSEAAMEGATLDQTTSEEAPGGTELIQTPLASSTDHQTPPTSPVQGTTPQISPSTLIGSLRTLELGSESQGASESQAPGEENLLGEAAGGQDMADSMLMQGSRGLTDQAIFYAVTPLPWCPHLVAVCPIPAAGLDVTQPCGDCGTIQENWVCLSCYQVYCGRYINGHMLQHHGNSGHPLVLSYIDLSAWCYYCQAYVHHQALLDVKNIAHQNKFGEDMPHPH
Nature of the test: HDAC6 enzyme inhibitory assay (HDAC-Glo I/II Assay kit, luminescence). The settings on record: 10 μM test compound, wells without enzyme = 100% inhibition; for inhibition at 10 µM: read-out: HDAC6 inhibitory rate (%) (10 μM). The test is classed as biochemical. The method, boiled down: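 Full-length human HDAC6, GST-purified from Sf-9 cells, was preincubated with compound for 60 min at room temperature in Tris-HCl pH 7.5 buffer with glutathione and Tween-20. Substrate-developer was then added, and luminescence was read after 20 min at room temperature. Inhibition was expressed relative to no-enzyme wells, taken as 100% inhibition.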

As for `Fc1cc(-c2nnc(C(F)F)o2)cc(-c2nccn2Cc2ccc(F)c(Cl)c2)c1` [Example 68a, 2-(3-{1-[(3-chloro-4-fluorophenyl)methyl]-1H-imidazol-2-yl]-5-fluorophenyl)-5-(difluoromethyl)-1,3,4-oxadiazole], the inhibition at 10 µM came to 99%.
For `COc1cc(CN(C)N2Cc3ccc(-c4nnc(C(F)F)o4)cc3C2=O)cc(OC)c1` [Example 63c, 6-[5-(difluoromethyl)-1,3,4-oxadiazol-2-yl]-2-{[(3,5-dimethoxyphenyl)methyl](methyl)amino}-2,3-dihydro-1H-isoindol-1-one], the inhibition at 10 µM was 101%.
Turning to `CN(Cc1cncc(Cl)c1)N1Cc2ccc(-c3nnc(C(F)F)o3)cc2C1=O` [Example 60c, 2-{[(5-chloropyridin-3-yl)methyl] (methyl)amino}-6-[5-(difluoromethyl)-1,3,4-oxadiazol-2-yl]-2,3-dihydro-1H-isoindol-1-one], the inhibition at 10 µM turned out to be 101%.
Still for that read-out and setting: with `CN1C(=O)c2cc(-c3nnc(C(F)F)o3)ccc2CC1c1ccc(F)cc1` (single isomer, unassigned; isomer 1) [Example 41b, 7-[5-(difluoromethyl)-1,3,4-oxadiazol-2-yl]-3-(4-fluorophenyl)-2-methyl-3,4-dihydroisoquinolin-1(2H)-one (Optical Isomer 1)] the figure was 99%; with `Cc1nnc(Cn2ccnc2-c2cc(F)cc(-c3nnc(C(F)F)o3)c2)o1` [Example 54a, 2-(difluoromethyl)-5-(3-fluoro-5-{1-[(5-methyl-1,3,4-oxadiazol-2-yl)methyl]-1H-imidazol-2-yl}phenyl)-1,3,4-oxadiazole], 89%.
With `CN1C(=O)c2cc(-c3nnc(C(F)F)o3)ccc2CC1(C)c1ccc(F)cc1` (single isomer, unassigned; isomer 1) [Example 23b, 7-[5-(difluoromethyl)-1,3,4-oxadiazol-2-yl]-3-(4-fluorophenyl)-2,3-dimethyl-3,4-dihydroisoquinolin-1(2H)-one (optical isomer 1)], the “HDAC6 inhibitory rate (%) (10 μM)” value (10 µM) is given as 58%.
Turning to `Cn1ccc(OC2CCC(F)(F)CC2)c(-c2cc(-c3nnc(C(F)F)o3)ccn2)c1=O` [Example 88a, 4′-[(4,4-difluorocyclohexyl)oxy]-4-[5-(difluoromethyl)-1,3,4-oxadiazol-2-yl]-1′-methyl[2,3′-bipyridine]-2′(1′H)-one], the inhibition at 10 µM worked out at 100%.
Still for that read-out and setting: with `O=C1COCC(Cc2ccccn2)N1c1cc(F)cc(-c2nnc(C(F)F)o2)c1` (stereo not shown) [Example 42a] the figure was 68%.
`CC(C)(C)OC(=O)N1CCC(Oc2cccnc2-c2cc(F)cc(-c3nnc(C(F)F)o3)c2)CC1` [Example 16a, tert-butyl 4-[(2-{3-[5-(difluoromethyl)-1,3,4-oxadiazol-2-yl]-5-fluorophenyl}pyridin-3-yl)oxy]piperidine-1-carboxylate]: the inhibition at 10 µM came out at 98%.
The same measure, in the same setting: the result for `COCCOc1ccc(CN(C)N2Cc3ccc(-c4nnc(C(F)F)o4)cc3C2=O)cc1` [Example 55c, 6-[5-(difluoromethyl)-1,3,4-oxadiazol-2-yl]-2-[{[4-(2-methoxyethoxy)phenyl]methyl} (methyl)amino]-2,3-dihydro-1H-isoindol-1-one] reads 101%; that for `Fc1cc(-c2nnc(C(F)F)o2)cc(-c2nccn2Cc2cccnc2)c1` [Example 49a], 99%.
On the same count and under the same terms, the result for `C[C@]1(c2ccc(F)cc2)Cc2ncc(-c3nnc(C(F)F)o3)cc2C(=O)N1CC(F)F` [Example 55b, (7R)-6-(2,2-difluoroethyl)-3-[5-(difluoromethyl)-1,3,4-oxadiazol-2-yl]-7-(4-fluorophenyl)-7-methyl-7,8-dihydro-1,6-naphthyridin-5(6H)-one] reads 100%; that for `O=C1c2cc(-c3nnc(C(F)F)o3)ccc2CN1NCCc1ccc(F)cc1F` [Example 19c, 6-[5-(difluoromethyl)-1,3,4-oxadiazol-2-yl]-2-{[2-(2,4-difluorophenyl)ethyl]amino}-2,3-dihydro-1H-isoindol-1-one], 98%.

These data come from patent US12084436B2, “Heterocyclic compound” (Takeda Pharmaceutical Company Limited, priority 2019, dated 2024).
